EC50 data for five compounds are collected here from US11498903B2 (BRISTOL-MYERS SQUIBB COMPANY, priority 2017, dated 2022).

pEC50: −log10 of the molar value. Like-named read-outs stand apart in the source and are kept apart here.

The assay deals with T1, human APJ receptor (Homo sapiens, UniProt P35414).
T1 construct: expressed in transfected cells
T1 sequence (P35414 1-380): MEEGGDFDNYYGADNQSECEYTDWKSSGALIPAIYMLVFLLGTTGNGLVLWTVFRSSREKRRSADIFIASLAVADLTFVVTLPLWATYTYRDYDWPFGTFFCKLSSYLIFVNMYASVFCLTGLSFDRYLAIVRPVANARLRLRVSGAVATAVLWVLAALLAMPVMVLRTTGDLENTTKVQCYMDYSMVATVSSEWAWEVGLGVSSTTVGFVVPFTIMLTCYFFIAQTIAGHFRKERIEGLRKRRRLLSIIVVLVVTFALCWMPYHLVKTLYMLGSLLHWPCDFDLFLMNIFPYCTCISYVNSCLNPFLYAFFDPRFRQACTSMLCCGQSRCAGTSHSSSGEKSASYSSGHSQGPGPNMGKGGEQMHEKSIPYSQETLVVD
Put plainly: Intracellular cAMP accumulation assay (APJ hcAMP, HTRF). To be noted: HEK293 cells stably expressing human APJ receptor. It is filed as cell-based. The method, boiled down: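 Inhibition of 2 μM forskolin-driven cAMP ([…] present) measured by HTRF in 5,000 HEK293 cells/well stably expressing human APJ, 30 min, room temperature. EC50 came from a variable-slope sigmoidal fit; Ymax was relative to (Pyr1)apelin-13 set at 100%.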

[1] abbreviates: Table 1, inhibition of forskolin-mediated cAMP production, read-out: APJ hcAMP EC50.
[2] abbreviates: Table 2, read-out: APJ cAMP Human EC50.
[3] abbreviates: Table 3, read-out: APJ cAMP Human EC50.

Take `CCC[C@@H](NC(=O)c1ccc(-c2cc(Cl)ccc2-c2nc3cc4ccccc4cc3[nH]2)c(C(=O)O)c1)c1ccccc1` [Example 27, 5′-chloro-2′-{1H-naphtho[2,3-d]imidazol-2-yl}-4-{[(1R)-1-phenylbutyl]carbamoyl}-[1,1′-biphenyl]-2-carboxylic acid]: the pEC50 under setting [1] was 7.00 to 8.00 and the negative-log EC50 (pEC50) under setting [2] is 7.00 to 8.00.
On to `CCC[C@@H](NC(=O)c1ccc(-c2cc(Cl)ccc2-c2nc3cc(CC(F)(F)F)ccc3[nH]2)c(C(=O)O)c1)c1ccccc1` [Example 16, 5′-chloro-4-{[(1R)-1-phenylbutyl]carbamoyl}-2′-[5-(2,2,2-trifluoroethyl)-1H-1,3-benzodiazol-2-yl]-[1,1′-biphenyl]-2-carboxylic acid], for which the pEC50 reads like this: under setting [1], > 8.00; under setting [2], > 8.00.
Take `COc1cc2[nH]c(-c3cccc(Cl)c3-c3ccc(C(=O)N4CCCC4)cc3C(=O)O)nc2cc1F` [Example 124, (S)-2′-chloro-6′-(5-fluoro-6-methoxy-2-yl)-4-(pyrrolidine-1-carbonyl)-[1,1′-biphenyl]-2-carboxylic acid]: the negative logarithm of the EC50 (pEC50) reads like this: under setting [1], 7.00 to 8.00; under setting [3], 7.00 to 8.00.
Regarding `CCC[C@@H](NC(=O)c1ccc(-c2cc(Cl)ccc2-c2nc3ccccc3[nH]2)c(C(=O)NOC)c1)c1ccccc1` [Example 41, 2′-(1H-1,3-benzodiazol-2-yl)-5′-chloro-N2-methoxy-N4-[(1R)-1-phenylbutyl]-[1,1′-biphenyl]-2,4-dicarboxamide], the pEC50 is 7.00 to 8.00 under setting [1] and 7.00 to 8.00 under setting [2].
`CCC[C@@H](NC(=O)c1ccc(-c2c(Cl)cccc2-c2nc3cc(Cl)cc(C)c3[nH]2)c(C(=O)O)c1)c1ccccc1` (atropisomer, axis not shown) [Example 95, (S)-2′-chloro-6′-(5-chloro-7-methyl-1H-1,3-benzodiazol-2-yl)-4-{[(1R)-1-phenylbutyl]carbamoyl}-[1,1′-biphenyl]-2-carboxylic acid]: the negative-log EC50 (pEC50) is > 8.00 under setting [1] and > 8.00 under setting [3].
